Reference: patent US8519124B2, “Chemokine receptor antagonists and use thereof” (Ono Pharmaceutical Co., Ltd., priority 2005, dated 2013)

How the values were obtained:
[1] = Measurement of maximum plasma level (Cmax) and bioavailability (BA); format: in vivo; settings: male, Crl:CD(SD), po; rat plasma; orally administered solution 10 mg/kg, fasting
Protocol: Measurement of Maximum Plasma Level (CMax) and Bioavailability (BA)
A test compound is weighed, dissolved in Solutol (trade name; manufactured by BASF-TAKEDA Vitamins Ltd.)/propylene glycol=7/3 which is heated to 60° C. and adjusted to 20 mg/mL; thereafter, the test compound is diluted by 10 times with distilled water for injection, and further diluted by 2 times with saline solution, by which intravenously administered solution is eventually made. The test compound is weighed, dissolved in Solutol (trade name; manufactured by BASF-TAKEDA Vitamins Ltd.)/propylene glycol=7/3 which is heated to 60° C., and adjusted to 20 mg/mL; thereafter, the test compound is diluted by 10 times with distilled water for injection, by which orally administered solution is eventually made. Intravenous administration is performed by rapid single administration (n=3) of intravenously administered solution (1 mg/kg) from the tail vein of Crl:CD(SD) Rat (male, manufactured by CHARLES RIVER LABORATORIES JAPAN, INC). Oral administration is performed by forced administration (n=3) of orally administered solution (10 mg/kg) into the stomach of Crl:CD(SD) Rat (male, manufactured by CHARLES RIVER LABORATORIES JAPAN, INC.) using a sonde. The administration is conducted under fasting conditions; water is freely ingested. A 0.35 mL blood sample is taken from cervical vein by using Heparinized Syringe at 15 minutes, 30 minutes, 1 hour, 2 hours, 4 hours, 6 hours, 8 hours, and 24 hours after administration. The obtained blood is stored in ice, and after centrifugation at 12,000 rpm for 5 minutes, blood plasma is fractionated. The blood plasma is preserved at a temperature of −80° C. The sample of blood plasma preserved at a temperature of −80° C. is dissolved; inner standard solution (100 μL) and acetonitrile (2 mL) are added to the blood plasma sample 100 μL and stirred; and the sample is centrifuged at 2,500 rpm for 10 minutes. After the supernatant is evaporated to dryness by means of a centrifugal concentrator, 67% dimethyl sulfoxide solution (150 μL) is added to the residue and dissolves them again; and 20 μL of the solution is analyzed by means of LC/MS/MS.
The analysis by means of LC/MS/MS should be performed, for example, under the following conditions:
Measurement device: Waters 2795 (manufactured by Waters Corporation)
Analytical column: Unison UK-C18, 3.0 μm particle size, 2.0 mm×30 mm (manufactured by Imtakt Corporation)
Analytical column temperature: Room temperature
Moving bed: 5 mM IPC-PFAA-7 solution/acetonitrile (9/1→1/9)
Measurement device: Quatro micro API (manufactured by Micromass Communications Inc.)
Method for ionization: ES+
Capillary electric potential: 3.30 kV
Source temperature: 120° C.
Desolvation temperature: 350° C.
The monitor ion which was suitable for each sample was selected.
The concentration transition in the rat blood plasma of the test compound is analyzed by means of non-compartment analysis method by using WinNonlin 4.0.1 (manufactured by Pharsight Corporation) to calculate the maximum blood concentration Cmax and the area under the blood concentration curve AUC.
BA is calculated by means of the following formula: BA(%)={(AUCp.o./Dosep.o.)/(AUCi.v./Dosei.v.)}×100
AUCp.o.: AUC in oral administration
Dosep.o.: Amount of the drug orally administered
AUCi.v.: AUC in intravenous administration
Dosei.v.: Amount of the drug intravenously administered

[2] = test system: DOPA liposome (artificial lipid membrane); test: Artificial lipid membrane binding by using Biacore S51 system; settings: 50 μM compound; for Judgement (phospholipidosis inductive effect): DOPA liposome; for Corrected value of binding response (RU): DOPA liposome on Sensor Chip L1, 37° C., PBS/5% DMSO (pH 7.4 or PH 6.0)
Protocol: Artificial Lipid Membrane Binding Account by Using Biacore (Registered Trademark) S51 System
10 mM of 1,2-Dioleoyl-sn-Glycero-3-Phosphate, Monosodium Salt (hereinafter abbreviated as DOPA) chloroform solution was evaporated to dryness by means of an aspirator, and 0.6 mL of PBS/5% dimethyl sulfoxide (hereinafter abbreviated as DMSO) was added. The chloroform solution was fully suspended by means of a vortex mixer, and the freezing and thawing were repeated for 5 times. Liposome was created by means of a liposome adjustment instrument (manufactured by Avestin Inc.) and 2 syringes, and was diluted to 0.5 mM with PBS/5% DMSO just prior to immobilization.
(ii) Measurement Compound Adjustment
The 38 μL of 1×PBS is added to 2 μL DMSO solution (10 mM), and further the 360 μL 1×PBS/5% DMSO was added; the 50 μM of final concentration in the 1×PBS/5% DMSO was adjusted and measured.
All of the following analysis used Biacore® S51 system; the measurement conditions were set by Biacore S51 Control Soft.
The measurement temperature was set to be 37° C., and the 1×PBS/5% DMSO (pH 7.4 or PH 6.0) was used as a buffer. Series S Sensor Chip L1 was used for a sensor chip. The DOPA was immobilized in one of the measuring spots on the sensor surface, and the central spot was used as a reference.
Immobilization of liposome was conducted at a flow rate of 10 μL/min for about 3 minutes; then the compound was added at a flow rate of 30 μL/min and the interaction was measured. The measurement conditions are as follows:
Assay buffer: PBS/5% DMSO (pH 7.4 or PH 6.0)
Measurement temperature: 37° C.
Sensor chip: Series S Sensor Chip L1
Flow rate: 10 μL/min at the time of the liposome immobilization; 30 μL/min at the time of the measurement of interaction with the compound
Regeneration: 20 mM CHAPS (3-[(3-Cholamidopropyl)dimethylammonio]-1-propanesulfonate), Isopropanol/50 mM sodium hydroxide solution=40/60 (volume ratio) mixture (60 seconds)
The data processing was conducted by means of method of Abdiche et al. (Analytical biochemistry, 328, 233-243 (2004)) by using Biacore S51 Evaluation Soft.
Regarding the value of binding response (RU) in which the value of reference was subtracted, it was divided by a sample molecular weight after minute error of the DMSO concentration included in the sample solution was corrected. In addition, the value obtained here was divided by an amount of capture at the time of the cycle because the value obtained here was proportional to the amount of capture of the liposome; further, the value was multiplied by a million to be considered as a corrected value (Corrected value=1000000)×RU (test compound)/molecular quantity (test compound) RU (liposome)).
Propranolol, Amiodarone, Desipramine, Imipramine and Procaine were added as the controls, and it was recognized that the variation of the binding response was within ca. 10 to 15%.
The compound, in which a value of the binding response after the correction was equal to or more than 150, was determined as positive.

Row | SMILES | Cmax [1] | Judgement (phospholipidosis inductive effect) [2] | Corrected value of binding response (RU) [2]
1 | CC(C)CN1CCC2(CCN(Cc3ccc(C(=O)N(Cc4ncc[nH]4)Cc4ncc[nH]4)cc3)CC2)C1 [Example 8 (113), N,N-bis(1H-imidazol-2-ylmethyl)-4-[(2-isobutyl-2,8-diazaspiro[4.5]dec-8-yl)methyl]benzamide] | 80 ng/mL | negative | 66.6 RU
2 | CC(C)(C)CN1CCC2(CC1)CCN(C(=O)Cc1ccc(CN(Cc3ncc[nH]3)Cc3ncc[nH]3)cc1)C2 [Example 40 (68), 1-(4-{2-[8-(2,2-dimethylpropyl)-2,8-diazaspiro[4.5]dec-2-yl]-2-oxoethyl}phenyl)-N,N-bis(1H-imidazol-2-ylmethyl)methanamine] | 175 ng/mL | negative | 77.6 RU
3 | CCC(CC)N1CCC2(CCN(C(=O)c3ccc(CN(Cc4ncc[nH]4)Cc4nccn4C)cc3)C2)CC1 [Example 40 (72), 1-(4-{[8-(1-ethylpropyl)-2,8-diazaspiro[4.5]dec-2-yl]carbonyl}phenyl)-N-(1H-imidazol-2-ylmethyl)-N-[(1-methyl-1H-imidazol-2-yl)methyl]methanamine] | 157 ng/mL | negative | 72.0 RU
4 | O=C(CC(=O)N1CCC2(CCN(C3CCCCC3)CC2)C1)N1CCC(N(Cc2ncc[nH]2)Cc2ncc[nH]2)CC1 [Example 65 (4), 1-[3-(8-cyclohexyl-2,8-diazaspiro[4.5]dec-2-yl)-3-oxopropanoyl]-N,N-bis(1H-imidazol-2-ylmethyl)-4-piperidinamine] | 420 ng/mL | negative | 36.0 RU
